From PMC12564265, “Navigating the Deep Eutectic Solvent Landscape: Experimental and Machine Learning Solubility Explorations of Syringic, p-Coumaric, and Caffeic Acids” (International Journal of Molecular Sciences, 2025)

Experiment: Shake-flask solubility with spectrophotometric measurement in aqueous DES mixtures
Type: physicochemical
Details: for Increase in the solubility compared to the neat DES: 25 °C
Experimental: In order to determine the solubility of the three studied phenolic acids in deep eutectic solvents, a very well-established shake-flask method coupled with spectrophotometric measurements was utilized. The initial procedure involved the preparation of various DESs, which was conducted by mixing their HBA and HBD counterparts in a glass vessel and heating the composition until the formation of a transparent, uniform liquid. […] For additional measurements, the DESs were mixed with water in varying proportions, creating aqueous DES systems. Saturated solutions of CAF, SYR, and COU were obtained by adding excess amounts of these compounds to test tubes containing either a neat deep eutectic solvent or its aqueous solution. Such samples were placed in the Orbital Shaker Incubator ES-20/60 from Biosan (Riga, Latvia) and heated for 24 h at 25 °C, 30 °C, 35 °C, and 40 °C (±0.1 °C) with simultaneous mixing at 60 rpm. Before measurements, the samples were filtered using a PTFE syringe filter from Qpore (Dallas, TX, USA) with a 0.22 μm pore size. In order to avoid possible precipitation of the saturated solutions at decreased temperatures, the test tubes, syringes, pipette tips, and filters were kept at a temperature identical to that of the samples. The spectrophotometric measurements required the preparation of calibration curves for the three APIs. This involved the preparation of a stock solution of each compound in methanol, which was later successfully diluted, and the obtained solutions of varying concentrations were measured using an A360 spectrophotometer from AOE Instruments (Shanghai, China). The wavelength range was set to 200-500 nm, and the resolution was 1 nm. The analytical wavelengths were determined to be 324 nm for caffeic acid, 273 nm for syringic acid, and 308 nm for p-coumaric acid. The final regression equations, obtained after averaging three distinct sets of measurements, are collected in Table 2 together with determination coefficients and limits of detection (LOD) and quantification (LOQ) for the calibration curves. The measurements of the samples were conducted with the same spectrophotometer and identical settings. Methanol was used for the dilution of the samples so that they could remain within the linearity range of the method. Complete spectra of the samples were recorded, but for the solubility determination, the absorbance values at a specific analytical wavelength were considered. These values were combined with the corresponding regression equations of the calibration curves and served for the calculation of the concentration of the three phenolic acids in the studied samples. The densities of such samples were also measured, and for this task 1 mL of each sample was weighed to a precision of 0.1 mg using an AS 110 R2.PLUS analytical balance from […] (Radom, Poland). The obtained densities enabled the calculation of mole fractions of CAF, SYR, and COU dissolved in the studied DESs. For each considered system, three distinct measurements were conducted, and the results were averaged.

With COc1cc(C(=O)O)cc(OC)c1O [syringic acid, 4-hydroxy-3,5-dimethoxybenzoic acid] the Mole fraction solubility (Bet – TEG 1:2 + water, x*DES 0.9, 30°C) was 0.0551±0.0005 mole fraction, the Mole fraction solubility (Bet – TEG 1:2 + water, x*DES 0.9, 35°C) was 0.0682±0.0014 mole fraction and the Mole fraction solubility (Bet – TEG 1:2 + water, x*DES 0.9, 40°C) was 0.0796±0.0008 mole fraction. For the same molecule, the Mole fraction solubility (Bet – TEG 1:2, x*DES 1.0 (neat DES), 25°C) was 0.0474±0.0003 mole fraction, the Mole fraction solubility (Bet – TEG 1:2, x*DES 1.0 (neat DES), 30°C) was 0.0541±0.0004 mole fraction and the Mole fraction solubility (Bet – TEG 1:2, x*DES 1.0 (neat DES), 35°C) was 0.0657±0.0011 mole fraction. The Mole fraction solubility (Bet – TEG 1:2, x*DES 1.0 (neat DES), 40°C) was 0.0778±0.0009 mole fraction, the “Increase in the solubility compared to the neat DES” value (Bet-TEG 1:2, x*DES = 0.9 (xwater = 0.1)) was 3% and the Mole fraction solubility (ChCl – TEG 1:2 + water, x*DES 0.1, 25°C) was 0.0069±0.0001 mole fraction. For the same molecule, the Mole fraction solubility (ChCl – TEG 1:2 + water, x*DES 0.1, 30°C) was 0.0093±0.0001 mole fraction, the Mole fraction solubility (ChCl – TEG 1:2 + water, x*DES 0.1, 35°C) was 0.0131±0.0001 mole fraction and the Mole fraction solubility (ChCl – TEG 1:2 + water, x*DES 0.1, 40°C) was 0.0174±0.0002 mole fraction. For the same molecule, the Mole fraction solubility (ChCl – TEG 1:2 + water, x*DES 0.2, 25°C) was 0.0122±0.0001 mole fraction, the Mole fraction solubility (ChCl – TEG 1:2 + water, x*DES 0.2, 30°C) was 0.0158±0.0001 mole fraction and the Mole fraction solubility (ChCl – TEG 1:2 + water, x*DES 0.2, 35°C) was 0.0218±0.0001 mole fraction. It also gave a Mole fraction solubility (ChCl – TEG 1:2 + water, x*DES 0.2, 40°C) of 0.0305±0.0002 mole fraction, a Mole fraction solubility (ChCl – TEG 1:2 + water, x*DES 0.3, 25°C) of 0.0186±0.0001 mole fraction and a Mole fraction solubility (ChCl – TEG 1:2 + water, x*DES 0.3, 30°C) of 0.0249±0.0001 mole fraction. It also gave a Mole fraction solubility (ChCl – TEG 1:2 + water, x*DES 0.3, 35°C) of 0.0347±0.0003 mole fraction, a Mole fraction solubility (ChCl – TEG 1:2 + water, x*DES 0.3, 40°C) of 0.0476±0.0003 mole fraction and a Mole fraction solubility (ChCl – TEG 1:2 + water, x*DES 0.4, 25°C) of 0.0254±0.0003 mole fraction. For the same molecule, the Mole fraction solubility (ChCl – TEG 1:2 + water, x*DES 0.4, 30°C) was 0.0347±0.0004 mole fraction, the Mole fraction solubility (ChCl – TEG 1:2 + water, x*DES 0.4, 35°C) was 0.0466±0.0004 mole fraction and the Mole fraction solubility (ChCl – TEG 1:2 + water, x*DES 0.4, 40°C) was 0.0643±0.0006 mole fraction. For the same molecule, the Mole fraction solubility (ChCl – TEG 1:2 + water, x*DES 0.5, 25°C) was 0.0324±0.0002 mole fraction, the Mole fraction solubility (ChCl – TEG 1:2 + water, x*DES 0.5, 30°C) was 0.0446±0.0004 mole fraction and the Mole fraction solubility (ChCl – TEG 1:2 + water, x*DES 0.5, 35°C) was 0.0618±0.0006 mole fraction. The Mole fraction solubility (ChCl – TEG 1:2 + water, x*DES 0.5, 40°C) was 0.0822±0.0010 mole fraction, the Mole fraction solubility (ChCl – TEG 1:2 + water, x*DES 0.6, 25°C) was 0.0401±0.0004 mole fraction and the Mole fraction solubility (ChCl – TEG 1:2 + water, x*DES 0.6, 30°C) was 0.0524±0.0005 mole fraction. It also gave a Mole fraction solubility (ChCl – TEG 1:2 + water, x*DES 0.6, 35°C) of 0.0731±0.0007 mole fraction, a Mole fraction solubility (ChCl – TEG 1:2 + water, x*DES 0.6, 40°C) of 0.0992±0.0012 mole fraction and a Mole fraction solubility (ChCl – TEG 1:2 + water, x*DES 0.7, 25°C) of 0.0475±0.0003 mole fraction. The Mole fraction solubility (ChCl – TEG 1:2 + water, x*DES 0.7, 30°C) was 0.0628±0.0004 mole fraction, the Mole fraction solubility (ChCl – TEG 1:2 + water, x*DES 0.7, 35°C) was 0.0871±0.0005 mole fraction and the Mole fraction solubility (ChCl – TEG 1:2 + water, x*DES 0.7, 40°C) was 0.1214±0.0012 mole fraction. For the same molecule, the Mole fraction solubility (ChCl – TEG 1:2 + water, x*DES 0.8, 25°C) was 0.0541±0.0003 mole fraction, the Mole fraction solubility (ChCl – TEG 1:2 + water, x*DES 0.8, 30°C) was 0.0699±0.0006 mole fraction and the Mole fraction solubility (ChCl – TEG 1:2 + water, x*DES 0.8, 35°C) was 0.1009±0.0006 mole fraction. The Mole fraction solubility (ChCl – TEG 1:2 + water, x*DES 0.8, 40°C) was 0.1351±0.0013 mole fraction, the Mole fraction solubility (ChCl – TEG 1:2 + water, x*DES 0.9, 25°C) was 0.0550 mole fraction and the Mole fraction solubility (ChCl – TEG 1:2 + water, x*DES 0.9, 25°C, listed as syryngic acid) was 0.0550±0.0005 mole fraction. For the same molecule, the Mole fraction solubility (ChCl – TEG 1:2 + water, x*DES 0.9, 30°C) was 0.0718±0.0005 mole fraction, the Mole fraction solubility (ChCl – TEG 1:2 + water, x*DES 0.9, 35°C) was 0.1018±0.0008 mole fraction and the Mole fraction solubility (ChCl – TEG 1:2 + water, x*DES 0.9, 40°C) was 0.1373±0.0011 mole fraction. It also gave a Mole fraction solubility (ChCl – TEG 1:2, x*DES 1.0 (neat DES), 25°C) of 0.0515±0.0004 mole fraction, a Mole fraction solubility (ChCl – TEG 1:2, x*DES 1.0 (neat DES), 30°C) of 0.0660±0.0003 mole fraction and a Mole fraction solubility (ChCl – TEG 1:2, x*DES 1.0 (neat DES), 35°C) of 0.0917±0.0006 mole fraction. The Mole fraction solubility (ChCl – TEG 1:2, x*DES 1.0 (neat DES), 40°C) was 0.1234±0.0013 mole fraction, the “Increase in the solubility compared to the neat DES” value (ChCl-TEG 1:2, x*DES = 0.9 (xwater = 0.1)) was 7% and the “Solubility increase between 25 °C and 40 °C” value (neat DES (x*DES = 1.0) involving betaine (Bet-TEG 1:2)) was 164%. The “Solubility increase between 25 °C and 40 °C” value (neat DES (x*DES = 1.0) with choline chloride (ChCl-TEG 1:2)) was 240%.
